Experimental data reported in the NIST ThermoML archive (doi:10.1016/j.fluid.2007.07.066).

Assay: refractive index (Na D-line) (dimensionless); mn = molality of the nth substance listed, in mol/kg
Settings: 298.15 K, 101 kPa, Liquid, Standard Abbe refractometry

O=P([O-])([O-])O.[Na+].[Na+] [disodium hydrogen phosphate] + O
Settings	refractive index
m1 = 0.0049	1.3328
m1 = 0.0104	1.3329
m1 = 0.0154	1.3331
m1 = 0.0211	1.3333
m1 = 0.0413	1.334
m1 = 0.0712	1.3348
m1 = 0.1066	1.3357
m1 = 0.1437	1.3367
m1 = 0.1927	1.3379
m1 = 0.2475	1.3392
m1 = 0.3697	1.3421
m1 = 0.4438	1.3438
m1 = 0.5295	1.3458
m1 = 0.6125	1.3476
m1 = 0.6768	1.349
m1 = 0.7479	1.3505
m1 = 0.8346	1.3524
m1 = 0.9695	1.3551
